Test results reported in ChEMBL document CHEMBL1201862, “PubChem BioAssay data set” (2004).
Activity calls are given as the source filed them.

Legend:
[1] = molecular target: T1, Replicative DNA helicase DnaB (Mycobacterium tuberculosis, UniProt P9WMR3); assay: DnaB intein splicing inhibitors, dose response, biochemical, cell-free fluorescence (AID 449749); type: functional
T1 sequence (P9WMR3 whole entry): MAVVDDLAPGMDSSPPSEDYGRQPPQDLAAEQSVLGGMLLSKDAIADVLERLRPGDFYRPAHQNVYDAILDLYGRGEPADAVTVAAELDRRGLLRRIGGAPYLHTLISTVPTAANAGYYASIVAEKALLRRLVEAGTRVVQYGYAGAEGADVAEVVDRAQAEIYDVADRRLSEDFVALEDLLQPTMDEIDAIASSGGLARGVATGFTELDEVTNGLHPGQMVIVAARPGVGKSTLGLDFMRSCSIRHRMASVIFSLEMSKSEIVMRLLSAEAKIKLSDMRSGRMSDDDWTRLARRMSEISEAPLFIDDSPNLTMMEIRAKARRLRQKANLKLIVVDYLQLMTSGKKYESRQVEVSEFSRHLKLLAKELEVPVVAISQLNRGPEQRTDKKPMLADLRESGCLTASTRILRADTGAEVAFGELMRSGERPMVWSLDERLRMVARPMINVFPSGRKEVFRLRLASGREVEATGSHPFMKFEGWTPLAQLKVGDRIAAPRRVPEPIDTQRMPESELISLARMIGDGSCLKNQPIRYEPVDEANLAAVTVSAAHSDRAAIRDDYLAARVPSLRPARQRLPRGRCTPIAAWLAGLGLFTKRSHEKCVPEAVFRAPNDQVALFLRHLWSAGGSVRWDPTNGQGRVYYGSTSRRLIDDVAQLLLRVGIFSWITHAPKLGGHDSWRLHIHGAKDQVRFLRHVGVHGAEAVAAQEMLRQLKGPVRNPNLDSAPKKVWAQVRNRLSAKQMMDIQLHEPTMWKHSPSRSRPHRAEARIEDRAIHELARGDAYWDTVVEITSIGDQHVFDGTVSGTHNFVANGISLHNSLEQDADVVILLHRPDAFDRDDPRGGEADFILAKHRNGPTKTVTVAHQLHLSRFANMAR

Protein RecA = molecular target: T2, Protein RecA (Mycobacterium tuberculosis, UniProt P9WHJ3); assay: Fluorescence Cell-Free Homogeneous Dose Retest to Identify Inhibitors of RecA-Intein Splicing Activity. [Related pubchem assays (depositor defined):AID2097, AID2223, AID489010, AID492950]; type: functional
T2 sequence (P9WHJ3 whole entry): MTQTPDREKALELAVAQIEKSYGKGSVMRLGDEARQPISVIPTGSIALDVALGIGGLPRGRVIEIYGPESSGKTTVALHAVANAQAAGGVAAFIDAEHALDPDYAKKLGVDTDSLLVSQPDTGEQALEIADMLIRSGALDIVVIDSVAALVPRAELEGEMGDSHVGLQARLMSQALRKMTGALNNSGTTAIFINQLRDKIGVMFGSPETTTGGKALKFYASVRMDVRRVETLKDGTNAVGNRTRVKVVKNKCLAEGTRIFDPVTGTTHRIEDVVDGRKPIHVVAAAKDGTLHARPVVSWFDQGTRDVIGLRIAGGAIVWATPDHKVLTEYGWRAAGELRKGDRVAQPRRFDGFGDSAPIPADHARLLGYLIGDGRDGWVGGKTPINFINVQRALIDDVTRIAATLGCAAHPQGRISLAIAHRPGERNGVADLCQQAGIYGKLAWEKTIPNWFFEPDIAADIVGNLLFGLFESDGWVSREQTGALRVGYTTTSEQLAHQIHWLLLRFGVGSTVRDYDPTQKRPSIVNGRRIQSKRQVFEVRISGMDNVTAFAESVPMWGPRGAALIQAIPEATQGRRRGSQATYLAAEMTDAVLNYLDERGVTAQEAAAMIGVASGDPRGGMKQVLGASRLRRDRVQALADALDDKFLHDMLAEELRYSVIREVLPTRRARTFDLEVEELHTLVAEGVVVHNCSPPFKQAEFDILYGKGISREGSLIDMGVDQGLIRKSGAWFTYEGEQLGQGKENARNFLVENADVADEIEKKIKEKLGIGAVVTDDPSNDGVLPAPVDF

[2] = growth suppression of PTEN-null colon cells, dose response, cell-based, HCT116 PTEN knockout (AID 1047); type: functional;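 note: HCT116 colon tumor cells with PTEN knocked out; cells exposed to compound for 60 hours before readout; potency for loss of cell viability measured by luminescence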
[3] = molecular target: NACHT, LRR and PYD domains-containing protein 3 (Homo sapiens, UniProt Q96P20); assay: NALP3 inhibitors in yeast, dose response, luminescent (AID 488799); type: functional
HEK293 = assay: NOD2 signaling inhibitors in MDP-stimulated cells, cell-based, uHTS, luminescence (AID 2001); type: functional; conditions: Homo sapiens
[4] = molecular target: T3, RNA-binding protein pos-1 (Caenorhabditis elegans, UniProt G5EF15); assay: inhibitors of POS-1/mex-3 RNA binding, dose response, biochemical, fluorescence polarization (AID 1964);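 note: purified POS-1 fused to maltose binding protein made in E. coli; potency of compounds blocking POS-1 binding to fluorescent RNA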
T3 sequence (G5EF15 whole entry): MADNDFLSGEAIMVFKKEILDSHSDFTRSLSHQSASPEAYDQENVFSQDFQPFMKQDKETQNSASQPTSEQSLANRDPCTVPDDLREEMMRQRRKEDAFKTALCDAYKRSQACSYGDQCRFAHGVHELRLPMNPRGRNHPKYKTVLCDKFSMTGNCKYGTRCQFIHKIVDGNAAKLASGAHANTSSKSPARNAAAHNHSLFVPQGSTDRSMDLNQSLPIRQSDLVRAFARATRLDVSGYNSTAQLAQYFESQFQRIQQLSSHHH

[5] = inhibitors of intracellular T. cruzi replication, confirmation, NIH3T3 host cells, beta-gal luminescence (AID 2044); type: functional, cell-based;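 note: intracellular parasites grown in NIH/3T3 mouse fibroblasts as host cells; luminescent beta-galactosidase reporter signal from transgenic T. cruzi replicating inside host cells; inhibitors lower the luminescence signal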
[6] = cytotoxicity toward NIH3T3 fibroblasts, dose response, counter-screen, cell-based, ATP luminescence, mouse fibroblasts (AID 2010); type: functional;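 note: cells exposed to compound for about 90 hours before reading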
[7] = molecular target: T4, Microphthalmia-associated transcription factor (Homo sapiens, UniProt O75030); assay: TRPM1 promoter luciferase signal decrease, dose response, MITF inhibitor project, cell-based, SK-MEL-5, cherry-picked, set 3 (AID 493073); type: functional
T4 sequence (O75030 whole entry): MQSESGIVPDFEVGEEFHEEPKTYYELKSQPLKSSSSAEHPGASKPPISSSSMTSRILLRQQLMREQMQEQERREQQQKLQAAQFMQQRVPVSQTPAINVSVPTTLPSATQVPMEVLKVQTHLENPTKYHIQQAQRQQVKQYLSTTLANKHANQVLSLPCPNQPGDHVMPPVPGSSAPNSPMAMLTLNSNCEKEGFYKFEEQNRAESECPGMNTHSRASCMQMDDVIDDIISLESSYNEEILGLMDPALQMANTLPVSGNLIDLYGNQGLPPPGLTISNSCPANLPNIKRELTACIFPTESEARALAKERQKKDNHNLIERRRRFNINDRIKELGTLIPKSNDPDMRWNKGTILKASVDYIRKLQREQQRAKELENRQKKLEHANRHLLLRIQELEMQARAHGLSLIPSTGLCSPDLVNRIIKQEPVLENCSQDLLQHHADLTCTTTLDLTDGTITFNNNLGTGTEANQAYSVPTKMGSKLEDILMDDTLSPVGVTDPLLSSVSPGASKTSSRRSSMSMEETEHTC

Chain of NACHT, LRR and PYD domains-containing protein 3 (Q96P20 whole entry, the tested form may be a part): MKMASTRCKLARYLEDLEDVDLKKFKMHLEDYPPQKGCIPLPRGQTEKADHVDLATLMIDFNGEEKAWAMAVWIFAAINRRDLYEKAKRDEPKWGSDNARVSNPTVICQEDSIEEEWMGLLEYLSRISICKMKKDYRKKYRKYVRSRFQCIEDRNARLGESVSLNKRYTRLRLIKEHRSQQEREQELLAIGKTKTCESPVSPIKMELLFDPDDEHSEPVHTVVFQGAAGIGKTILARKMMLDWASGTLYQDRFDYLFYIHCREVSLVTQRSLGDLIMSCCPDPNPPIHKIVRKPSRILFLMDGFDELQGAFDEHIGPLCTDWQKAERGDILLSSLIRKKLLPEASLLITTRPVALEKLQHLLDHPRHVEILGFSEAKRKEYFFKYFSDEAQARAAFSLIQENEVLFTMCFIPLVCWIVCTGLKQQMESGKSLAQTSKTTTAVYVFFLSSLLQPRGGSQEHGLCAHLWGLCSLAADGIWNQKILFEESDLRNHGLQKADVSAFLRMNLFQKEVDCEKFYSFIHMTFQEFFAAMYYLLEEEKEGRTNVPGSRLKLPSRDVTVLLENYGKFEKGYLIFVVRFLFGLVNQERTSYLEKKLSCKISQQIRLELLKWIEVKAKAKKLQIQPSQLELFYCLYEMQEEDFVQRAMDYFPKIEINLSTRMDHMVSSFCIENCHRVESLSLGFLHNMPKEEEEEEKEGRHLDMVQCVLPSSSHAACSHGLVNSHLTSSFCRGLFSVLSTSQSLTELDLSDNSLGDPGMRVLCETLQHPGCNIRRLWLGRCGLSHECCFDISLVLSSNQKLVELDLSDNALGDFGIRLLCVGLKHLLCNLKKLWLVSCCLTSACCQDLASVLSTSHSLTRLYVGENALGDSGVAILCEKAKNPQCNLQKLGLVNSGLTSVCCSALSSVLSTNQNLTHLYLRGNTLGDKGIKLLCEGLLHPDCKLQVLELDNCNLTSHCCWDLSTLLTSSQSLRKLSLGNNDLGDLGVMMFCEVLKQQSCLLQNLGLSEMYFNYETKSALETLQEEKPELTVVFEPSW

## CC(C)c1ccc(S(=O)(=O)/N=C2\C=C(NS(=O)(=O)c3ccccc3)C(=O)c3ccccc32)cc1
[1]
  AC50: 3.92 µM (active)
Protein RecA
  EC50: 3.69 µM (active)

## COc1ccc(CNC(=O)c2c(C)oc3c2C(=O)c2ccccc2C3=O)cc1
[2]
  EC50: 20.1 µM (active)
[3]
  IC50: 9.7 µM (active)
[1]
  AC50: 13.3 µM (active)
Protein RecA
  EC50: 5.29 µM (active)

## CCSc1nsc(NC(=O)Nc2cccc(F)c2)n1
HEK293
  IC50: 3.82 µM (inactive)
[3]
  IC50: 1.97 µM (active)

## O=[N+]([O-])c1ccc(/C=N/n2cnc3ccccc32)s1
[4]
  EC50: > 300 µM (inconclusive)
[5]
  EC50: 0.257 µM (active)
[6]
  EC50: 5.46 µM (active)
[7]
  AC50: 6.25 µM (active)
